Assay [1] deals with ESAT-6 peptide-specific IFN-γ-secreting T cells from peripheral blood. Format: cell-based, human. The settings on record: for % of TB patients responding to individual peptide: peptide 10 μg/ml, 3×10^5 PBMC/well, positive = at least 5 IFN-γ SFCs more than and at least twice negative control.
Assay [2] deals with HLA DR7. Nature of the assay: Peptide binding to HLA DR7.
In assay [3] the test system is HLA DR1. Nature of the assay: Peptide binding to HLA DR1.

On to “QKWDATATELNNALQ (listed as Mycobacterium tuberculosis) [ES12, 15-mer peptide from ESAT-6 of M. tuberculosis]”, for which, in assay [1], the “% of TB patients responding to individual peptide” value (“% of TB patients responding” below) is listed as 25%.

For the sequence NLARTISEAGQAMAS [ES15], the “% of TB patients responding” value in assay [1] is recorded as 34%.

Turning to “SAIQGNVTSIHSLLD (listed as Mycobacterium tuberculosis) [ES4, 15-mer peptide from ESAT-6 of M. tuberculosis]”, in assay [1], the “% of TB patients responding” value is on record as 23%.

Take NNALQNLARTISEAG [ES14]: in assay [1], the “% of TB patients responding” value worked out at 28%. In addition, the “Detection of ESAT-6-specific CD8 T cells” value in assay [1] (peptide contains CD8 epitopes) is listed as “detected”.

“EGKQSLTKLAAAWGG (listed as Mycobacterium tuberculosis) [ES7, 15-mer peptide from ESAT-6 of M. tuberculosis]”: the “% of TB patients responding” value in assay [1] is 15%.

Take “MTEQQWNFAGIEAAA (listed as Mycobacterium tuberculosis) [ES1, 15-mer peptide from ESAT-6 of M. tuberculosis]”: the “% of TB patients responding” value in assay [1] was 57%. For the same sequence, the “% of healthy contacts tested recognising the peptide” value in assay [1] (healthy contacts exposed to open pulmonary tuberculosis) is 68%. Besides, the “Number of contacts testing positive” value in assay [1] (out of 22 contacts with prolonged exposure to smear positive index case, Heaf test grade 3 or 4) is 15. In assay [2], the “Binding to HLA DR7” value is “binds”. Besides, the “Binding to HLA DR1” value in assay [3] is “binds”.

For the sequence YQGVQQKWDATATEL [ES11], the “% of TB patients responding” value in assay [1] is reported as 34%.

Take WNFAGIEAAASAIQG [ES2]: the “% of TB patients responding” value in assay [1] was 40%.

The values above are taken from US9005902B2, “Tuberculosis diagnostic test” (priority 1998, dated 2015).
